Values quoted from earlier work as cited in patent publication US20160286794A1, “PLANT DISEASE CONTROL AGENT AND PLANT DISEASE CONTROL METHOD” (UBE MATERIALS INDUSTRIES, LTD., priority 2013, published 2016).

settings: Hydrophile-Lipophile Balance of the nonionic surfactant

Row | Substance | HLB
1 | nonylphenyl polyethylene glycol [Nodinet P-40] | 13.0
2 | octylphenol polyethylene glycol ether [Triton X-100] | 13.5
3 | polyoxyethylene branched nonyl cyclohexyl ether [Triton N-101] | 13.5

Next, values leading:

Row | HLB | Substance
4 | 16.7 | polyethylene glycol sorbitan monolaurate [Tween 20]
5 | 15.0 | polyethylene glycol sorbitan monooleate [Tween 80]
